Test results from PMC2375353, “Effective treatment of experimental U-87MG human glioblastoma in nude mice with a targeted cytotoxic bombesin analogue, AN-215” (British Journal of Cancer, 2002).

Legend:
[1] = parameters: method as in 2 sources, one per row (each row's own in cited_ref): ref Nagy et al, 1997 ||| ref not printed in the sentence (AN-201: Nagy et al, 1996); conditions: cited from earlier work
Text: (§1) Current treatment options for malignant gliomas, including surgery, radiation, and chemotherapy, are of limited effectiveness, and novel therapeutic modalities must be explored. Targeting of antineoplastic agents to cancer cells by linking them to a ligand with high affinity for tumour cells should improve tumour growth inhibition and decrease peripheral toxicity ([Schally and Nagy, 1999]). The presence of high affinity receptors for bombesin (BN)-like peptides on a wide variety of tumours prompted us to employ some of our powerful BN/gastrin releasing peptide (GRP) antagonists as carrier mole ... || Recently, we developed a series of targeted cytotoxic conjugates based on analogues of peptide hormones such as luteinizing hormone-releasing hormone(LH-RH), somatostatin and BN/GRP, for which high affinity receptors are expressed on a variety of tumours ([Schally and Nagy, 1999]; [Nagy and Schally, 2001]).

[2] = system: U-87MG human glioblastomas in nude mice; assay: Histology of U-87MG tumours (experiment 1); type: in vivo, human tumour in nude mice; conditions: for Extent of necrosis vs control / % area of necrosis / Ratio of apoptotic to mitotic indices / Apoptotic index / Mitotic index: experiment 1 tumours; for % area of necrosis: 150 nmol kg^-1 i.v. x4, control 60.0±5.8; for % area of necrosis / Ratio of apoptotic to mitotic indices / Apoptotic index / Mitotic index / Number of AgNORs per cell: mean±s.e.; for Ratio of apoptotic to mitotic indices: control 0.38±0.06; for Apoptotic index / Mitotic index: per 1000 cells; for Apoptotic index: control 5.9±0.7; for Mitotic index: control 16.6±1.4; for Number of AgNORs per cell: silver staining, 50 cells per tumour, control 4.93±0.18
Text: Samples of tumour tissues were fixed in 10% buffered formalin. The specimens were embedded in Paraplast (Oxford Labware, St. Louis, MO, USA). Six μm thick sections were cut and stained with haematoxylin-eosin. Mitotic and apoptotic cells were counted in nine standard high power microscopic fields containing an average of 330 cells, and their numbers per 1000 cells were accepted as the mitotic and apoptotic indices, respectively. To eliminate errors caused by variances in thickness of slides and cellularity of areas investigated, the ratio of apoptotic to mitotic indices was calculated in each tumour. For the determination of the extent of necrosis in tumours, the crossing points of a microscope ocular net that coincided with necrosis in the slide made at the largest cross-section of each tumour were counted. The ratio of these points to the number of all points above the tumour represented the percentage area of necrosis. […] NORs are parts of DNA closely associated with nucleoli and encode for ribosomal RNA. They are also associated with argyrophylic proteins and thus can be visualised by silver staining. The amount of AgNORs is a good indicator of cell proliferation ([van Diest et al, 1998]). The silver-stained black dots in 50 cells of each tumour were counted and the AgNOR number per cell was calculated. The data were evaluated by one way analysis of variance (ANOVA) and the treated groups compared to the control by Dunnett's test.

[3] = General toxicity (mortality, body weight); type: in vivo, nude mice; conditions: for Final BW: mean±s.e.
Experimental: Experiment 1 was started when tumours had grown to approximately 40 mm^3 in volume. Animals were randomly divided into three treatment groups: group 1(10 mice), control, which received vehicle solution; group 2 (10 mice), injected with cytotoxic radical AN-201; group 3 (11 mice), given cytotoxic BN analogue AN-215. Cytotoxic compounds were injected through the jugular vein at a dose of 150 nmol kg^−1 of body weight (BW) on days 1, 8, 15 and 22. Tumour volume (length×width×height×0.5236) and BW were measured twice a week. The experiment was terminated on day 29. […] Tumours were excised and weighed. Tumour specimens were snap-frozen and stored at −70°C until extraction of RNA for reverse transcription-polymerase chain reaction (RT–PCR). Tumour volume doubling time was calculated between day 1 and 29 using the formula: […]
Experiment 2 was started when U-87MG tumours had grown to 70–84 mm^3 in volume. The animals were divided into the following treatment groups: group 1 (10 mice), control, vehicle solution; group 2 (10 mice), analogue AN-215; group 3 (five mice), unconjugated mixture of the cytotoxic radical AN-201 and BN antagonist RC-3095. All compounds were injected i.v. at 150 nmol kg^−1 of BW on days 1, 10, and 17. In addition, one group of tumour-bearing mice received an i.v. injection of 200 μg of BN antagonist RC-3095 15 min before each administration of AN-215 at a dose of 150 nmol kg^−1 of BW on days 1, 10 and 17 as in the case of group 2. The experiment was terminated on day 20 as described above.
General toxicity was evaluated on the basis of mortality rate and changes in BW. Toxicity to BN receptor-positive organs was assessed by measuring gastrin release in response to GRP stimulation ([Plonowski et al, 2000]). At the end of experiment 1, blood samples were collected 5 min after i.v. injection of 2 μg of GRP(14-27) dissolved in 100 μl of 5% mannitol. Serum gastrin concentrations were measured by double-antibody radioimmunoassay with a kit provided by ICN Pharmaceuticals Diagnostic Division (Orangeburg, NY, USA). The interassay variation was 10.6%, and the intraassay variation was 6%.

[4] = system: PC-3 human androgen-independent prostate cancer; conditions: ref Plonowski et al, 2000; cited from earlier work
Text: as §1, with “...” for “... || Recently, we developed a series of targeted cytotoxic conjugates based on analogues of peptide hormones such as luteinizing hormone-releasing hormone(LH-RH), somatostatin and BN/GRP, for which high affinity receptors are expressed on a variety of tumours ([Schally and Nagy, 1999]; [Nagy and Schally, 2001]).”

[5] = system: BN receptors on Swiss 3T3 fibroblasts; conditions: ref Nagy et al, 1997; cited from earlier work
Text: as §1, with “...” for “... || Recently, we developed a series of targeted cytotoxic conjugates based on analogues of peptide hormones such as luteinizing hormone-releasing hormone(LH-RH), somatostatin and BN/GRP, for which high affinity receptors are expressed on a variety of tumours ([Schally and Nagy, 1999]; [Nagy and Schally, 2001]).”

[6] = system: H-69 human small-cell lung carcinoma; conditions: ref Kiaris et al, 1999a; cited from earlier work
Text: as §1, with “...” for “... || Recently, we developed a series of targeted cytotoxic conjugates based on analogues of peptide hormones such as luteinizing hormone-releasing hormone(LH-RH), somatostatin and BN/GRP, for which high affinity receptors are expressed on a variety of tumours ([Schally and Nagy, 1999]; [Nagy and Schally, 2001]).”

[7] = experiment 1, 150 nmol kg^-1 i.v. days 1, 8, 15, 22
[8] = experiment 1, 150 nmol kg^-1 i.v. days 1, 8, 15, 22, control 0/10
[9] = experiment 1, day 29, control 29.3±1.0

Compound | Extent of necrosis vs control [2] | % area of necrosis [2] [%] | Ratio of apoptotic to mitotic indices [2] | Apoptotic index [2] | Mitotic index [2] | Number of AgNORs per cell [2] | Mortality, % of animals [3, 7] [%] | Mortality (number of dead animals/number of total) [3, 8] | Final BW [3, 9] [g] | other results
COc1cccc2c1C(=O)c1c(O)c3c(c(O)c1C2=O)C[C@@](O)(C(=O)CO)C[C@@H]3O[C@H]1C[C@H](N2C=CCC2)[C@H](O)[C@H](C)O1 [AN-201, 2-pyrrolino-doxorubicin] | only a slight and not significant change in necrosis | 69.6±7.0 | 0.36±0.04 | 5.3±0.6 | 15.2±1.5 | 4.31±0.09 | 20 | 2/10 | 25.5 ± 0.8 | Potency relative to DOX (fold) ([1]; in vitro, ref not printed in the sentence (AN-201: Nagy et al, 1996)): 1000 times
Gln-Trp-Ala-Val-Gly-His-Leu-ψ(CH2-NH)-Leu-NH2 [AN-215] | significantly larger than in the controls | 81.7±6.7 | 0.85±0.25 | 6.2±0.8 | 10.9±2.2 | 4.16±0.12 | 9 | 1/11 | 25.4 ± 0.6 | Antiproliferative effect ([1]; ref Nagy et al, 1997): retains the antiproliferative effect of its cytotoxic moiety; Toxicity by BW and mortality ([3]; both experiments, 150 nmol kg^-1 i.v.): not toxic; Final BW, % of control ([3]; experiment 1, day 29): 87%; Mortality (number of dead animals/number of total) ([3]; experiment 2, 150 nmol kg^-1 i.v. days 1, 10, 17, control 1/10): 0/10; Toxicity-related deaths ([3]; experiment 2, AN-215 150 nmol kg^-1 without pretreatment): no toxicity-related deaths; Mortality, % of animals, after RC-3095 pretreatment ([3]; experiment 2, RC-3095 200 μg i.v. about 15 min before AN-215): 11%; Final BW, % of control ([3]; experiment 2, day 20): 90%; Final BW ([3]; experiment 2, day 20, control 30.2±0.8): 27.3 ± 0.9 g; Inhibition of PC-3 human androgen-independent prostate cancer [4]: effectively inhibit; Affinity to BN receptors [5]: high affinity; Inhibition of H-69 human small-cell lung carcinoma [6]: effectively inhibit
